From patent publication US11446287B2, “Compounds and methods for EP300 or CBP modulation and indications therefor” (Opna Immuno-Oncology SA, priority 2019, dated 2022)

biological target: T1, Recombinant human CBP containing the bromodomain (CBP-BD (1043-1159)) (Homo sapiens, UniProt Q92793); test: CBP Alphascreen binding assay; settings: read-out: CREBBP (CBP) IC50
T1 construct: Recombinant human CBP bromodomain (CBP-BD (1043-1159)); made in house; host or cells: E. coli BL21-CodonPlus (DE3), modified pET vector
How it was run: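 Buffer: 50 mM HEPES pH 7.5, 50 mM NaCl, 0.01% BSA, 0.01% Triton X-100, 2 mM DTT. The signal was normalised to plate controls and fitted with a four-parameter curve to give IC50.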

T1 sequence (Q92793 1081-1197): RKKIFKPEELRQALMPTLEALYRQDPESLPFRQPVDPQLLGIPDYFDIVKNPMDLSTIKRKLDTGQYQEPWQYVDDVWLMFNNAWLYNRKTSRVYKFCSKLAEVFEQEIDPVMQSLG

**Q.** With Cc1noc(C)c1-c1cnc2c(c1)c(-c1ccc(C(=O)O)cc1OC(F)(F)F)cn2-c1cnc(N)nc1 [P-0320, 4-(1-(2-aminopyrimidin-5-yl)-5-(3,5-dimethylisoxazol-4-yl)-1H-pyrrolo[2,3-b]pyridin-3-yl)-3-(trifluoromethoxy)benzoic acid] as the compound, how does the IC50 read?
**A.** 0.1 to 1000 nM

**Q.** How did the IC50 turn out when Cc1noc(C)c1-c1cnc2c(c1)c(-c1ccc(C(F)(F)C(=O)O)cc1)cn2C(c1ccccn1)C1CCCC1 (stereo not drawn) [P-0034, 2-(4-(1-(cyclopentyl(pyridin-2-yl)methyl)-5-(3,5-dimethylisoxazol-4-yl)-1H-pyrrolo[2,3-b]pyridin-3-yl)phenyl)-2,2-difluoroacetic acid] was run?
**A.** 0.1 to 1000 nM

**Q.** For COc1nc(C(=O)O)ccc1-c1cn(C2CCOCC2)c2ncc(-c3c(C)noc3C)cc12 [P-0368, 5-(5-(3,5-dimethylisoxazol-4-yl)-1-(tetrahydro-2H-pyran-4-yl)-1H-pyrrolo[2,3-b]pyridin-3-yl)-6-methoxypicolinic acid], which IC50 is on record?
**A.** 0.1 to 1000 nM

**Q.** With Cc1noc(C)c1-c1cnc2c(c1)c(-c1ccc(C(=O)O)cc1OC(F)(F)F)cn2-c1cncnc1 [P-0319, 4-(5-(3,5-dimethylisoxazol-4-yl)-1-(pyrimidin-5-yl)-1H-pyrrolo[2,3-b]pyridin-3-yl)-3-(trifluoromethoxy)benzoic acid] as the compound, how does the IC50 read?
**A.** 0.1 to 1000 nM

**Q.** Which IC50 does the source give for Cc1noc(C)c1-c1cnc2c(c1)c(-c1ccc(C(=O)O)cc1OC1CC1)cn2-c1ncccc1C#N [P-0337, 4-(1-(3-cyanopyridin-2-yl)-5-(3,5-dimethylisoxazol-4-yl)-1H-pyrrolo[2,3-b]pyridin-3-yl)-3-cyclopropoxybenzoic acid] here?
**A.** 0.1 to 1000 nM

**Q.** With Cc1noc(C)c1-c1cnc2c(c1)c(-c1c(Cl)cc(C(=O)O)cc1OCC(F)F)cn2[C@H]1CCOC1 [P-0333, (S)-3-chloro-5-(2,2-difluoroethoxy)-4-(5-(3,5-dimethylisoxazol-4-yl)-1-(tetrahydrofuran-3-yl)-1H-pyrrolo[2,3-b]pyridin-3-yl)benzoic acid] as the compound, how does the IC50 read?
**A.** 0.1 to 1000 nM

**Q.** Cc1noc(C)c1-c1cnc2c(c1)c(-c1c(Cl)cc(C(=O)O)cc1OC1CCC1)cn2C(C1CC1)C1CC1 [P-0356, 3-chloro-5-cyclobutoxy-4-(1-(dicyclopropylmethyl)-5-(3,5-dimethylisoxazol-4-yl)-1H-pyrrolo[2,3-b]pyridin-3-yl)benzoic acid] was tested. Which IC50 did it give?
**A.** 0.1 to 1000 nM

**Q.** For Cc1noc(C)c1-c1cnc2c(c1)c(-c1ccc(C(=O)O)c(O)c1)cn2C(c1ccccn1)C1CCCC1 (stereo not drawn) [P-0030, 4-(1-(cyclopentyl(pyridin-2-yl)methyl)-5-(3,5-dimethylisoxazol-4-yl)-1H-pyrrolo[2,3-b]pyridin-3-yl)-2-hydroxybenzoic acid], which IC50 is on record?
**A.** 1000 to 8000 nM

**Q.** With CCOc1cc(C(=O)O)c(F)c(OCC)c1-c1cn(C2CCOCC2)c2ncc(-c3c(C)noc3C)cc12 [P-0374, 4-(5-(3,5-dimethylisoxazol-4-yl)-1-(tetrahydro-2H-pyran-4-yl)-1H-pyrrolo[2,3-b]pyridin-3-yl)-3,5-diethoxy-2-fluorobenzoic acid] as the compound, how does the IC50 read?
**A.** 0.1 to 1000 nM

**Q.** How did the IC50 turn out when Cc1noc(C)c1-c1cnc2c(c1)c(-c1ccc(C(=O)O)cc1OC(F)(F)F)cn2-c1cnn(C)c1 [P-0318, 4-(5-(3,5-dimethylisoxazol-4-yl)-1-(1-methyl-1H-pyrazol-4-yl)-1H-pyrrolo[2,3-b]pyridin-3-yl)-3-(trifluoromethoxy)benzoic acid] was run?
**A.** 0.1 to 1000 nM

**Q.** How did the IC50 turn out when Cc1noc(C)c1-c1cnc2c(c1)c(-c1ccc(C(=O)O)cc1OC1CCC1)cn2C1CCOCC1 [P-0341, 3-cyclobutoxy-4-(5-(3,5-dimethylisoxazol-4-yl)-1-(tetrahydro-2H-pyran-4-yl)-1H-pyrrolo[2,3-b]pyridin-3-yl)benzoic acid] was run?
**A.** 0.1 to 1000 nM

**Q.** With Cc1ncccc1-n1cc(-c2ccc(C(=O)O)cc2OC(F)(F)F)c2cc(-c3c(C)noc3C)cnc21 [P-0317, 4-(5-(3,5-dimethylisoxazol-4-yl)-1-(2-methylpyridin-3-yl)-1H-pyrrolo[2,3-b]pyridin-3-yl)-3-(trifluoromethoxy)benzoic acid] as the compound, how does the IC50 read?
**A.** 0.1 to 1000 nM
